Experimental data reported in ChEMBL document CHEMBL4052759, “Discovery of DS79182026: A potent orally active hepcidin production inhibitor” (Bioorg Med Chem Lett, 2017).

What was measured:
[1] = target: Mitogen-activated protein kinase 14 (Homo sapiens) (UniProt Q16539); assay: Inhibition of p38a (unknown origin) at 0.078 uM relative to control
[2] = target: Casein kinase I isoform epsilon (Homo sapiens) (UniProt P49674); assay: Inhibition of CK1-epsilon (unknown origin) at 0.49 uM relative to control
[3] = target: Ribosomal protein S6 kinase alpha-2 (Homo sapiens) (UniProt Q15349); assay: Inhibition of RSK3 (unknown origin) at 0.49 uM relative to control
[4] = target: Inhibitor of nuclear factor kappa-B kinase subunit beta (Homo sapiens) (UniProt O14920); assay: Inhibition of IKK-beta (unknown origin) at 0.49 uM relative to control
[5] = target: Serine/threonine-protein kinase Nek1 (Homo sapiens) (UniProt Q96PY6); assay: Inhibition of NEK1 (unknown origin) at 0.49 uM relative to control
[6] = target: Homeodomain-interacting protein kinase 3 (Homo sapiens) (UniProt Q9H422); assay: Inhibition of HIPK3 (unknown origin) at 0.49 uM relative to control
[7] = tested on: Fibroblast growth factor receptor 4 (Homo sapiens), P22455 [V550L]; assay: Inhibition of FGFR4 V550L mutant (unknown origin) at 0.49 uM relative to control
Chain of Fibroblast growth factor receptor 4 (Homo sapiens), P22455 [V550L] (P22455 whole entry V550L): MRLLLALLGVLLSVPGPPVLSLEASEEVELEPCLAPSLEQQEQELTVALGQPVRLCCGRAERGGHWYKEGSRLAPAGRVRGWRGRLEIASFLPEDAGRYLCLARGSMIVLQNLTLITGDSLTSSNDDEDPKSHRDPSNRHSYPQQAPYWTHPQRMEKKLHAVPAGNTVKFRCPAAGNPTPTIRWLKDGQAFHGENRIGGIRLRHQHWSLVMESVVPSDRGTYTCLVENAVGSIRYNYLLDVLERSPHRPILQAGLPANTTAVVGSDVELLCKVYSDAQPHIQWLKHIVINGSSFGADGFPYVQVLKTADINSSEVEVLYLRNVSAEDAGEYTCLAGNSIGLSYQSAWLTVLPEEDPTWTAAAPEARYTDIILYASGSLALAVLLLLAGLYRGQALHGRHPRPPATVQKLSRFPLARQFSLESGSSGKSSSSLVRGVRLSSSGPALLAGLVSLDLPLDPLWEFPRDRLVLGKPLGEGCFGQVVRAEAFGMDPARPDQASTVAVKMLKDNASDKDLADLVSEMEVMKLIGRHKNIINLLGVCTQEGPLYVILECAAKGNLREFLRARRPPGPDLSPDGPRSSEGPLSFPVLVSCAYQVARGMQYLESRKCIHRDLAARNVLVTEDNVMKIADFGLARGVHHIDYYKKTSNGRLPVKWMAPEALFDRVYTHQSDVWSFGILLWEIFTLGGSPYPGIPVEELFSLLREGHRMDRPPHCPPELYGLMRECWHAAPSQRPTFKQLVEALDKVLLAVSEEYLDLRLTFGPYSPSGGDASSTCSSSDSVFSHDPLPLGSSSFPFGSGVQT

[8] = tested on: Receptor-type tyrosine-protein kinase FLT3 (Homo sapiens), P36888 [D835Y]; assay: Inhibition of Flt3 D835Y mutant (unknown origin) at 0.49 uM relative to control
[9] = target: Tyrosine-protein kinase Fyn (Homo sapiens) (UniProt P06241); assay: Inhibition of FYN (unknown origin) at 0.49 uM relative to control
Chain of Tyrosine-protein kinase Fyn (Homo sapiens) (P06241 2-537 limits assumed): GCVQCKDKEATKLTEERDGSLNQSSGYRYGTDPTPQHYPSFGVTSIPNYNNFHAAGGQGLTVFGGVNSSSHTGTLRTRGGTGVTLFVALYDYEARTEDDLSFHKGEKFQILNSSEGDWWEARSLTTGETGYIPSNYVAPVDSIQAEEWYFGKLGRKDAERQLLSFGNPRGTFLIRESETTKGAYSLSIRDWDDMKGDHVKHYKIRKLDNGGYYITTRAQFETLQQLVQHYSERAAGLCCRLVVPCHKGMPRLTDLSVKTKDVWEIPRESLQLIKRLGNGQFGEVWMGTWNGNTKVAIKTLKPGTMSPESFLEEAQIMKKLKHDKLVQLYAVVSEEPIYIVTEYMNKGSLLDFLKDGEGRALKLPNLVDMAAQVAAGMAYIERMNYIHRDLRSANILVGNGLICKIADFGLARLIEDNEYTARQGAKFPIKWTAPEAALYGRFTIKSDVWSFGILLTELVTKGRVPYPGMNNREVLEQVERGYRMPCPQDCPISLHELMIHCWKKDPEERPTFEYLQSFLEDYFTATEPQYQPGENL

[10] = target: Insulin-like growth factor 1 receptor (Homo sapiens) (UniProt P08069); assay: Inhibition of IGF1R (unknown origin) at 0.49 uM relative to control
[11] = target: Mast/stem cell growth factor receptor Kit (Homo sapiens) (UniProt P10721); assay: Inhibition of KIT (unknown origin) at 0.49 uM relative to control
[12] = target: Calcium/calmodulin-dependent protein kinase type 1D (Homo sapiens) (UniProt Q8IU85); assay: Inhibition of CamK1d (unknown origin) at 0.49 uM relative to control
[13] = target: MAP kinase-activated protein kinase 2 (Homo sapiens) (UniProt P49137); assay: Inhibition of MAPKAPK2 (unknown origin) at 0.49 uM relative to control
[14] = target: MAP kinase-interacting serine/threonine-protein kinase 1 (Homo sapiens) (UniProt Q9BUB5); assay: Inhibition of MNK1 (unknown origin) at 0.49 uM relative to control
[15] = target: Serine/threonine-protein kinase pim-3 (Homo sapiens) (UniProt Q86V86); assay: Inhibition of PIM3 (unknown origin) at 0.49 uM relative to control
[16] = target: STE20-like serine/threonine-protein kinase (Homo sapiens) (UniProt Q9H2G2); assay: Inhibition of SLK (unknown origin) at 0.49 uM relative to control
[17] = tested on: Platelet-derived growth factor receptor alpha (Homo sapiens), P16234 [D842V]; assay: Inhibition of PDGFRA D842V mutant (unknown origin) at 0.49 uM relative to control
Chain of Platelet-derived growth factor receptor alpha (Homo sapiens), P16234 [D842V] (P16234 whole entry D842V): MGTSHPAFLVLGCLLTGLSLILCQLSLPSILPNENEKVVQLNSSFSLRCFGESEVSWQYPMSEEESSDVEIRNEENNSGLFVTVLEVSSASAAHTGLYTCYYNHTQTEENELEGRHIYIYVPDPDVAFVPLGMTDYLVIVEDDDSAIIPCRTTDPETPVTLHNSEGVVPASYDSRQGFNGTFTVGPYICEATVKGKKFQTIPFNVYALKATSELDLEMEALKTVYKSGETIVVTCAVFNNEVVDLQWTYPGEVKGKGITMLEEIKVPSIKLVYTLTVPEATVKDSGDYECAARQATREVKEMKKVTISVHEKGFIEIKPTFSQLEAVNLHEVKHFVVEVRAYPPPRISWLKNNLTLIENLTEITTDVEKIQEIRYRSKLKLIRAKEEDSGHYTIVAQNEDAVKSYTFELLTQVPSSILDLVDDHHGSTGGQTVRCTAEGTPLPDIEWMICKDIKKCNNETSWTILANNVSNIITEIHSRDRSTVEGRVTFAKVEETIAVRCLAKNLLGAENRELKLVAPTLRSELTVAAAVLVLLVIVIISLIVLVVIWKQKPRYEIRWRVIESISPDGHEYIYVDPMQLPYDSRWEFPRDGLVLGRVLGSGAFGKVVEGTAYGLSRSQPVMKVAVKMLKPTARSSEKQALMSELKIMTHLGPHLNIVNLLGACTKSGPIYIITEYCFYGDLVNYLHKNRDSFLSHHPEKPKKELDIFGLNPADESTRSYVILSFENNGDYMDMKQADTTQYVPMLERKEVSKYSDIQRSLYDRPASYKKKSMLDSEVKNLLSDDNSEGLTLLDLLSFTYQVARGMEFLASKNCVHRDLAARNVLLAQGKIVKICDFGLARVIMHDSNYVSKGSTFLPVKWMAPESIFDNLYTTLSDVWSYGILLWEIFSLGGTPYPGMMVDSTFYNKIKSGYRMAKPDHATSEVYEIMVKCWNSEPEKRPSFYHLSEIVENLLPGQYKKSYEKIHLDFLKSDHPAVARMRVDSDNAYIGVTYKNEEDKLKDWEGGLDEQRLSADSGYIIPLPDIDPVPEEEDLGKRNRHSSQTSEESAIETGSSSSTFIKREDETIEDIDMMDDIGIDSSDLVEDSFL

[18] = target: High affinity nerve growth factor receptor (Homo sapiens) (UniProt P04629); assay: Inhibition of TRKA (unknown origin) at 0.49 uM relative to control
[19] = target: Interleukin-1 receptor-associated kinase 1 (Homo sapiens) (UniProt P51617); assay: Inhibition of IRAK1 (unknown origin) at 0.49 uM relative to control
[20] = target: RAC-beta serine/threonine-protein kinase (Homo sapiens) (UniProt P31751); assay: Inhibition of AKT2 (unknown origin) at 0.45 uM relative to control
Chain of RAC-beta serine/threonine-protein kinase (Homo sapiens) (P31751 whole entry): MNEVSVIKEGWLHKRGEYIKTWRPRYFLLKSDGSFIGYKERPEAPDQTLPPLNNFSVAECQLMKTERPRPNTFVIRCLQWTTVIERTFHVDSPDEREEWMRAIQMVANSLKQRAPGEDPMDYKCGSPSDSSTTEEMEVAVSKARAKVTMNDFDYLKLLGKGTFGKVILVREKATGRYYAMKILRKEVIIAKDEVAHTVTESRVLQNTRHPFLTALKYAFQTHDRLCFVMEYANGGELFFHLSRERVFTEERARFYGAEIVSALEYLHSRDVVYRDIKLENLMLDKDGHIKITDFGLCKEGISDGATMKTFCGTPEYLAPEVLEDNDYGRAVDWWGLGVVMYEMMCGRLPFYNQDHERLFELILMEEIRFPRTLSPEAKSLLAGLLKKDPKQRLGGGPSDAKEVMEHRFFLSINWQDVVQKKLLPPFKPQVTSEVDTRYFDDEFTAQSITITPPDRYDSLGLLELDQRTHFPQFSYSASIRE

[21] = target: T1, MAP kinase-activated protein kinase 5 (Homo sapiens) (UniProt Q8IW41); assay: Inhibition of PRAK (unknown origin) at 0.45 uM relative to control
T1 sequence (whole entry): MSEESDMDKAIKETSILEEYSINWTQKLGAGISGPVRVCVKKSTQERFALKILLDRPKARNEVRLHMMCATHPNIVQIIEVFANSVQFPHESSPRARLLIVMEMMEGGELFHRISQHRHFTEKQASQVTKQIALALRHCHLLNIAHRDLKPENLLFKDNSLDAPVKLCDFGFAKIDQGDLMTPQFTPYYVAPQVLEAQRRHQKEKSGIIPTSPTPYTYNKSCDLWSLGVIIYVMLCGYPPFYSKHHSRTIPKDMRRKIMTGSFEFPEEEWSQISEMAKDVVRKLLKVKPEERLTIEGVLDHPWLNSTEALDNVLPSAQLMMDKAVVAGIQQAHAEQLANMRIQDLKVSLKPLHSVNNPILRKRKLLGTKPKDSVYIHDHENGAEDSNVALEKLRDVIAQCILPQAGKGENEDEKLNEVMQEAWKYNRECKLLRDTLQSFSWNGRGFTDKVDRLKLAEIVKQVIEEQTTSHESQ

[22] = target: Cyclin-dependent kinase 1/cyclin B1 (Homo sapiens) (UniProt P06493+P14635); assay: Inhibition of CDK1/Cycline B1 (unknown origin) at 0.45 uM relative to control; type: protein-complex assay
[23] = target: Ephrin type-B receptor 4 (Homo sapiens) (UniProt P54760); assay: Inhibition of EPHB4 (unknown origin) at 0.45 uM relative to control
[24] = target: Mitogen-activated protein kinase 14 (Homo sapiens) (UniProt Q16539); assay: Inhibition of p38a (unknown origin) at 0.45 uM relative to control
[25] = target: Mitogen-activated protein kinase 11 (Homo sapiens) (UniProt Q15759); assay: Inhibition of p38-beta2 (unknown origin) at 0.45 uM relative to control
[26] = target: Misshapen-like kinase 1 (Homo sapiens) (UniProt Q8N4C8); assay: Inhibition of MINK (unknown origin) at 0.45 uM relative to control
Chain of Misshapen-like kinase 1 (Homo sapiens) (Q8N4C8 whole entry, looked up): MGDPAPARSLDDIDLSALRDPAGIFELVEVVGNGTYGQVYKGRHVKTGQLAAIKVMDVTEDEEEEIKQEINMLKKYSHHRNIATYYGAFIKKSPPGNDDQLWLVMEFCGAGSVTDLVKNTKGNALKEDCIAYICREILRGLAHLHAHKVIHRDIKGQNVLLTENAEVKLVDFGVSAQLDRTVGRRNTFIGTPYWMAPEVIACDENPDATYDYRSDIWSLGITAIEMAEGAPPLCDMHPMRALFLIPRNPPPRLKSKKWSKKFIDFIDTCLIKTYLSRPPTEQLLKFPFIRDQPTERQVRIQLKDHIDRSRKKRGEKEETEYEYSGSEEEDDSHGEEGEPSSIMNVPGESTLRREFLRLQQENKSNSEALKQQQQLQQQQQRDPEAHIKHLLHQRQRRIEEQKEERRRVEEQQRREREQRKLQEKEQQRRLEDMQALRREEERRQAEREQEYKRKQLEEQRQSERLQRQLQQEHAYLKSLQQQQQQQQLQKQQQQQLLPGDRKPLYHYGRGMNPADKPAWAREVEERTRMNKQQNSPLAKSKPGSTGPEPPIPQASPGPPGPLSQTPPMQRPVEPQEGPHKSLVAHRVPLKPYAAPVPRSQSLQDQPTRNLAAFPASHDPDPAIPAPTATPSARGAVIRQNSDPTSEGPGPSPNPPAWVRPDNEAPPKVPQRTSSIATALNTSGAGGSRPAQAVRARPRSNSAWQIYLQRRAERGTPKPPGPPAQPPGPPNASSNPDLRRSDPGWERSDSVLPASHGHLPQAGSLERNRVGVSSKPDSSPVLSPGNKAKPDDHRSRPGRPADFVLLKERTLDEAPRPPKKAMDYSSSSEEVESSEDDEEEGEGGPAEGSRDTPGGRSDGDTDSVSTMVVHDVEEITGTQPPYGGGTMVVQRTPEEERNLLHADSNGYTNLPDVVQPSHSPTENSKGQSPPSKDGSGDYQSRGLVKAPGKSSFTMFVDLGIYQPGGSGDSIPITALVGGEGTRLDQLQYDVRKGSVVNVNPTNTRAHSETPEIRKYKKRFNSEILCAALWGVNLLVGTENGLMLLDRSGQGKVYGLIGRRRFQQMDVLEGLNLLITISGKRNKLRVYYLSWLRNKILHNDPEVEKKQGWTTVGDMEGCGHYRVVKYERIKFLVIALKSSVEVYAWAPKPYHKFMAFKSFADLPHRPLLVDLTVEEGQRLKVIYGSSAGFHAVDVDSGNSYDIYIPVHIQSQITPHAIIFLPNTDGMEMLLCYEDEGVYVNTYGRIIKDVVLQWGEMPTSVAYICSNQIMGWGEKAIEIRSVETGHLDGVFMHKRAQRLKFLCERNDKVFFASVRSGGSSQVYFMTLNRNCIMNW

[27] = target: MAP kinase-activated protein kinase 3 (Homo sapiens) (UniProt Q16644); assay: Inhibition of MAPKAPK3 (unknown origin) at 0.45 uM relative to control
Chain of MAP kinase-activated protein kinase 3 (Homo sapiens) (Q16644 whole entry, looked up): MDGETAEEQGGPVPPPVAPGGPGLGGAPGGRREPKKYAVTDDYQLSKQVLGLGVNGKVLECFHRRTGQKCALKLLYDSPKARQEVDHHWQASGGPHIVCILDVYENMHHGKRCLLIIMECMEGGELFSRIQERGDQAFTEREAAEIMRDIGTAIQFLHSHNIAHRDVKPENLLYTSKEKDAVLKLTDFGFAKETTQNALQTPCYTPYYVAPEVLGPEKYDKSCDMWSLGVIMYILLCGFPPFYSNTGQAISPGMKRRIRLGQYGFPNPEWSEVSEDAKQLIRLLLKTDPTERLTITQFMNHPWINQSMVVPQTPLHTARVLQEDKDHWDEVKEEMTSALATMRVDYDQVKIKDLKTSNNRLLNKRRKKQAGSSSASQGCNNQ

[28] = target: Serine/threonine-protein kinase MARK1 (Homo sapiens) (UniProt Q9P0L2); assay: Inhibition of MARK1 (unknown origin) at 0.45 uM relative to control
[29] = target: Serine/threonine-protein kinase 25 (Homo sapiens) (UniProt O00506); assay: Inhibition of YSK (unknown origin) at 0.45 uM relative to control
[30] = tested on: Tyrosine-protein kinase ABL1 (Homo sapiens), P00519 [E255K]; assay: Inhibition of ABL1 E255K mutant (unknown origin) at 0.45 uM relative to control
[31] = tested on: Proto-oncogene tyrosine-protein kinase receptor Ret (Homo sapiens), P07949 [M918T]; assay: Inhibition of RET M918T mutant (unknown origin) at 0.45 uM relative to control
[32] = target: Tyrosine-protein kinase Srms (Homo sapiens) (UniProt Q9H3Y6); assay: Inhibition of SRM (SRMS) (unknown origin) at 0.45 uM relative to control

Chain of Mitogen-activated protein kinase 14 (Homo sapiens) (Q16539 whole entry, canonical isoform): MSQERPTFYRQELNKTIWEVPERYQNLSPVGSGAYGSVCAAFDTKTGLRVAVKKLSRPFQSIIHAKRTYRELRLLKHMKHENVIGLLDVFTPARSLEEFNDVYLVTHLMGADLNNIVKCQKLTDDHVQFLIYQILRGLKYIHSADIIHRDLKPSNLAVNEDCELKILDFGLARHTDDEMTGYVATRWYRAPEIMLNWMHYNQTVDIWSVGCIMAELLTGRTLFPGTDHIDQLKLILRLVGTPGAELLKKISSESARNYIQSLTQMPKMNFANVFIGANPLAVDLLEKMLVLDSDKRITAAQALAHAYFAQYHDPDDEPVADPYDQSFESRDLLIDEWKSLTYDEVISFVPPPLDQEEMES

With `COC(=O)Nc1noc2cc(-c3c(-c4ccccn4)n[nH]c3C)ccc12` as the molecule, how does the inhibition [1] read?
The inhibition was 5.7%.

Which results are given for `Cc1[nH]nc(C2CC2)c1-c1ccc2c(NC(=O)C3CC3)noc2c1`?
inhibition [2]: 1%; inhibition [3]: 2%; inhibition [4]: 2.3%; inhibition [5]: 0.3%; inhibition [6]: 1.3%; inhibition [7]: 4%; inhibition [8]: 15.3%; inhibition [9]: 2.7%; inhibition [10]: 1.3%; inhibition [11]: 1%; inhibition [12]: -4.3%; inhibition [13]: 2.7%; inhibition [14]: 3%; inhibition [15]: -4%; inhibition [16]: 4.7%; inhibition [17]: 31.7%; inhibition [18]: 3.7%; inhibition [19]: 6.7%

How did the inhibition [20] turn out when `Cc1n[nH]c(C)c1-c1ccc2c(NC(=O)c3ccc(N4CCN(C)CC4)cc3)n[nH]c2c1` was run?
Its inhibition is -2%.

And the inhibition [21]?
Its inhibition is -1.7%.

And the inhibition [22]?
Its inhibition is 1.3%.

And the inhibition [23]?
The inhibition was 8%.

And the inhibition [24]?
Its inhibition is 1.7%.

And the inhibition [25]?
Its inhibition is -1.3%.

And the inhibition [26]?
Its inhibition is 83.7%.

And the inhibition [27]?
The inhibition was 4%.

And the inhibition [28]?
Its inhibition is 36.7%.

And the inhibition [29]?
Its inhibition is 31%.

And the inhibition [30]?
The inhibition was 72.7%.

What about the inhibition [31] of the same molecule?
Its inhibition is 57.7%.

What about the inhibition [32] of the same molecule?
Its inhibition is 9%.
